Data on 13 compounds can be found in patent US9611256B2, “Alkyne-, azide- and triazole-containing flavonoids as modulators for multidrug resistance in cancers” (The Hong Kong Polytechnic University, priority 2012, dated 2017).

A value given as a limit tells only on which side of the number the result lay.

Series [1] addresses T1, MRP1 (Homo sapiens, UniProt P33527). As to the kind of experiment: cell-based.
A short description of another series: in vitro. To be noted: mouse.
Series [2] concerns the target T1, MRP1. The series is described as follows: Reversal of MRP1-mediated vincristine resistance in 2008/MRP1 cells (cell proliferation assay). To be noted: (IC50 towards L929 or Raw264.7)/(EC50 for reversing drug resistance).
Series [3] relates to P-gp, MRP1 and BCRP transporters. The series is described as follows: Selectivity for ABC transporters, determined from % of reversion (Tables 1 and 2). Format: cell-based, human. To be noted: determined from % of reversion in Table 1 (>80% strongly, 79-50% moderately selective). From the text: Generally, the triazole dimers library can be divided into mono-selective, dual-selective and multi-selective ABC transporter modulators. Table 2 summarizes the selectivity of different active triazole dimers and some monomeric azides for the ABC transporters. […] From the study, it seems that the simple monomeric azides could be a highly BCRP-selective inhibitor. […] It is possible that differently selective (mono-, dual- and multi-) inhibitors of drug transporters could be potentially useful tools for investigation of complicated drug-resistance phenotypes and eventually, for treatment of drug-resistant cancers caused by overexpression of ABC transporters.
The selectivity of active triazole compounds for various ABC transporters was determined from the Table 1. It would be considered as strongly selective if it causes >80% of reversion. It would be considered as moderately selective if it results in 79-50% of reversion. Overall, the active triazole compounds can be divided into mono-, dual- and multi-selective for P-gp, MRP1 and BCRP transporters.

Series [4] has as its target T1, MRP1. As to the kind of experiment: Reversal of MRP1-mediated DOX resistance in 2008/MRP1 cells (cell proliferation assay). Conditions: for DOX resistance of 2008/MRP1 Therapeutic index: (IC50 towards L929 or Raw264.7)/(EC50 for reversing drug resistance).
The target in series [5] is T2, BCRP (Homo sapiens, UniProt Q9UNQ0).
T2 sequence (Q9UNQ0 1-655): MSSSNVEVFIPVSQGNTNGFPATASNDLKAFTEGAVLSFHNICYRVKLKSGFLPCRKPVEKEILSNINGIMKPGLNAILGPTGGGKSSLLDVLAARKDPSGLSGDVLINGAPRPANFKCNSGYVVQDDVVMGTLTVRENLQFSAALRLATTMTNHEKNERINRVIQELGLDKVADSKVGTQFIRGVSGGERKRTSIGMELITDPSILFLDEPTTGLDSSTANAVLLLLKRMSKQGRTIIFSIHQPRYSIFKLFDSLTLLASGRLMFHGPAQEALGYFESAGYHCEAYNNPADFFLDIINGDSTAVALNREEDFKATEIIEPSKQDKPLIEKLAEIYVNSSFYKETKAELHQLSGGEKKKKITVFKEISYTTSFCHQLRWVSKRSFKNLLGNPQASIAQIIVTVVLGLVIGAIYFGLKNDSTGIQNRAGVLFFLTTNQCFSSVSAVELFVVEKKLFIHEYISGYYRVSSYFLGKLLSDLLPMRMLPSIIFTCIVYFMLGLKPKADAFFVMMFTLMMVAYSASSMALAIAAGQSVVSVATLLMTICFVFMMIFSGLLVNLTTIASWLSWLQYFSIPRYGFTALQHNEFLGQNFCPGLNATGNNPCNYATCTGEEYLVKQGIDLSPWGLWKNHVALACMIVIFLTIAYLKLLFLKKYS
As to the kind of experiment: Reversal of BCRP-mediated topotecan resistance in MCF7-MX100 cells (cell proliferation assay). Conditions: for Topotecan resistance of MCF7-MX100 Therapeutic index: (IC50 towards L929 or Raw264.7)/(EC50 for reversing drug resistance); for % of reversion of sensitivity of MCF7-MX100 towards topotecan: triazole dimers at 1.0 μM.

The target of series [6] is T2, BCRP. As to the kind of experiment: cell-based.

T1 sequence (P33527 whole entry): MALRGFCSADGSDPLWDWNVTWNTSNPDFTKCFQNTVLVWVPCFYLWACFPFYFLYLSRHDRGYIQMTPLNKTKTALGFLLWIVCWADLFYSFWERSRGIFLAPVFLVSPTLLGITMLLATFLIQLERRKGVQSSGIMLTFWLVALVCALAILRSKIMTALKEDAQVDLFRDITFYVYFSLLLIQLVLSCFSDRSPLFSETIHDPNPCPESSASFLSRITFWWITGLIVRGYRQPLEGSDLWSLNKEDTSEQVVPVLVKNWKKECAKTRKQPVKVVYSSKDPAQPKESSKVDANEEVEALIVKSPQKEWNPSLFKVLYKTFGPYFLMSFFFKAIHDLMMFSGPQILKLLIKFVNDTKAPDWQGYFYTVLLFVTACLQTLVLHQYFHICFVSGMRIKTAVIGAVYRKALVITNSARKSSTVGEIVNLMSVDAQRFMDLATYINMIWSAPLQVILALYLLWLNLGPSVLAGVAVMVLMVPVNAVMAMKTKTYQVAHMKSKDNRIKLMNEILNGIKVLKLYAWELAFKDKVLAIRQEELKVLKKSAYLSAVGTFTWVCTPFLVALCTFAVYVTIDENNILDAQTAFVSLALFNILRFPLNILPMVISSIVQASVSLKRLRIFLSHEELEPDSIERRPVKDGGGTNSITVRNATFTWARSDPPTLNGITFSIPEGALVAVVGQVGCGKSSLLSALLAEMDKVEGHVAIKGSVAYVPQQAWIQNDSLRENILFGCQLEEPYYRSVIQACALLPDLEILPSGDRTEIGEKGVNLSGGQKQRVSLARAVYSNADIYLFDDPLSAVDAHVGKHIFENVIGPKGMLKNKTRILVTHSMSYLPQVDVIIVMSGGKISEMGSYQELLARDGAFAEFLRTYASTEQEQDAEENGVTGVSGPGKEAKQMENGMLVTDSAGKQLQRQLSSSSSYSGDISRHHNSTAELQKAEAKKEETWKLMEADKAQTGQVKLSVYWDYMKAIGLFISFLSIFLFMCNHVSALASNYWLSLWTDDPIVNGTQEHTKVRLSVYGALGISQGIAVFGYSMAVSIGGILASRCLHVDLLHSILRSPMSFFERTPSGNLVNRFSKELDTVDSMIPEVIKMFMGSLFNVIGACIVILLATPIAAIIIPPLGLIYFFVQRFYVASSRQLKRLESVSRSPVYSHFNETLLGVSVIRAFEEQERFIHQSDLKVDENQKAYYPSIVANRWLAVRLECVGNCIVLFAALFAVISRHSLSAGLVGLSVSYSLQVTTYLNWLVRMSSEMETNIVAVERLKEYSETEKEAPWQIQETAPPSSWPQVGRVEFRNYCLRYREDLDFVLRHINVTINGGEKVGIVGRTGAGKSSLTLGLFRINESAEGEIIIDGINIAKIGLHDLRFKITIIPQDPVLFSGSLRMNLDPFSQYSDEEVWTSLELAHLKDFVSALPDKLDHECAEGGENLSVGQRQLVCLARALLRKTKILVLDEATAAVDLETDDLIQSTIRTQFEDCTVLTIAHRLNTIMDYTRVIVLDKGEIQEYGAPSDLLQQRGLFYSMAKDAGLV

By EC50 is commonly meant the midpoint of the concentration-response curve. A higher EC50 goes with weaker potency. In general, IC50 refers to the concentration that gives 50% inhibition. For `O=c1cc(-c2ccc(OCCCc3cn(CCOCCOc4ccc(-c5cc(=O)c6ccccc6o5)cc4)nn3)cc2)oc2ccccc12` [Ac1Az1, 2-(4-(3-(1-(2-(2-(4-(4-Oxo-4H-chromen-2-yl)phenoxy)ethoxy)ethyl)-1H-1,2,3-triazol-4-yl)propoxy)phenyl)-4H-chromen-4-one], on MRP1 [1], the EC50 came out at 128 ± 32.5 nM. In the series “in vitro”, this compound had a 50% inhibitory concentration (IC50) at 5 days of 60200 ± 16300 nM.
The like results for `O=c1cc(-c2ccc(OCCOCCn3cc(CCCOc4ccc5c(=O)cc(-c6ccccc6)oc5c4)nn3)cc2)oc2ccccc12` [Ac2Az1, 7-(3-(1-(2-(2-(4-(4-Oxo-4H-chromen-2-yl)phenoxy)ethoxy)ethyl)-1H-1,2,3-triazol-4-yl)propoxy)-2-phenyl-4H-chromen-4-one] were, in that order, 145 ± 25 nM and greater than 100000 nM.
The like results for `Cc1ccc2oc(-c3ccc(OCCCCc4cn(CCOCCOc5ccc(-c6cc(=O)c7ccccc7o6)cc5)nn4)cc3)cc(=O)c2c1` [Ac5Az1, 6-Methyl-2-(4-(4-(1-(2-(2-(4-(4-oxo-4H-chromen-2-yl)phenoxy)ethoxy)ethyl)-1H-1,2,3-triazol-4-yl)butoxy)phenyl)-4H-chromen-4-one] were, in that order, 250 nM and greater than 57000 nM.
As for `O=c1cc(-c2ccc(OCCOCCOCCn3cc(CCCCOc4ccc5c(=O)cc(-c6ccccc6)oc5c4)nn3)cc2)oc2ccccc12` [Ac12Az2, 7-(4-(1-(2-(2-(2-(4-(4-Oxo-4H-chromen-2-yl)phenoxy)ethoxy)ethoxy)ethyl)-1H-1,2,3-triazol-4-yl)butoxy)-2-phenyl-4H-chromen-4-one], at MRP1 [2], the “Vincristine resistance of 2008/MRP1 Therapeutic index” value is reported as greater than 377.9. Besides, the “Selectivity for ABC transporters (P-gp, MRP1, BCRP)” value (“Selectivity … (P-gp, MRP1, BCRP)” below) in series [3] was “MRP1- and BCRP-dual selectivity”. Also, at MRP1 [4], the “DOX resistance of 2008/MRP1 Therapeutic index” value is listed as greater than 298.5. The half-inhibitory concentration (IC50) at 5 days in the series “in vitro” was greater than 50000 nM.
Turning to `O=c1cc(-c2ccccc2)oc2cc(OCCCCc3cn(CCOCCOCCOc4ccc(-c5cc(=O)c6cc(F)ccc6o5)cc4)nn3)ccc12` [Ac12Az4, 6-Fluoro-2-(4-(2-(2-(2-(4-(4-((4-oxo-2-phenyl-4H-chromen-7-yl)oxy)butyl)-1H-1,2,3-triazol-1-yl)ethoxy)ethoxy)ethoxy)phenyl)-4H-chromen-4-one], the “Vincristine resistance of 2008/MRP1 Therapeutic index” value at MRP1 [2] is reported as greater than 736.9. The “Selectivity … (P-gp, MRP1, BCRP)” value in series [3] is “MRP1- and BCRP-dual selectivity”. In addition, the “DOX resistance of 2008/MRP1 Therapeutic index” value at MRP1 [4] is on record as greater than 525.5. Moreover, the concentration for half-maximal inhibition (IC50) at 5 days in the series “in vitro” was greater than 100000 nM.
With `COC(=O)c1cccc(COc2c(-c3ccc(OCCOCCOCCn4cc(CCCCOc5ccc6c(=O)cc(-c7ccccc7)oc6c5)nn4)cc3)oc3ccccc3c2=O)c1` [Ac12Az9, Methyl 3-(((4-oxo-2-(4-(2-(2-(2-(4-(4-((4-oxo-2-phenyl-4H-chromen-7-yl)oxy)butyl)-1H-1,2,3-triazol-1-yl)ethoxy)ethoxy)ethoxy)phenyl)-4H-chromen-3-yl)oxy)methyl)benzoate], on BCRP [5], the “Topotecan resistance of MCF7-MX100 Therapeutic index” value is recorded as greater than 71428.6 and the “% of reversion of sensitivity of MCF7-MX100 towards topotecan” value was “about 80.0%”. For the same compound, the “Selectivity … (P-gp, MRP1, BCRP)” value in series [3] was “multi-selectivity towards P-gp, MRP1 and BCRP transporters”. Besides, the IC50 at 5 days in the series “in vitro” is greater than 100000 nM. At BCRP [6], this compound showed an EC50 of no more than 10 nM.
On to `COC(=O)c1cccc(COc2c(-c3ccc(OCCOCCn4cc(COCCOc5ccc6c(=O)cc(-c7ccccc7)oc6c5)nn4)cc3)oc3ccccc3c2=O)c1` [Ac13Az8, Methyl 3-(((4-oxo-2-(4-(2-(2-(4-((2-((4-oxo-2-phenyl-4H-chromen-7-yl)oxy)ethoxy)methyl)-1H-1,2,3-triazol-1-yl)ethoxy)ethoxy)phenyl)-4H-chromen-3-yl)oxy)methyl)benzoate], for which, on BCRP [5], the “Topotecan resistance of MCF7-MX100 Therapeutic index” value is given as greater than 16666.7 and the “% of reversion of sensitivity of MCF7-MX100 towards topotecan” value is “about 80.0%”. The “Selectivity … (P-gp, MRP1, BCRP)” value in series [3] was “MRP1- and BCRP-dual selectivity”. Besides, the “% of reversion of sensitivity of 2008/MRP1 towards DOX” value on MRP1 [4] (triazole dimers at 1.0 μM) is reported as “about 55.9%”. The compound also yielded a half-inhibitory concentration (IC50) at 5 days in “in vitro” greater than 100000 nM. At BCRP [6], this compound came in with an EC50 of no more than 10 nM.
As to `COC(=O)c1cccc(COc2c(-c3ccc(OCCOCCOCCn4cc(COCCOc5ccc6c(=O)cc(-c7ccccc7)oc6c5)nn4)cc3)oc3ccccc3c2=O)c1` [Ac13Az9], on BCRP [5], the “Topotecan resistance of MCF7-MX100 Therapeutic index” value is greater than 50000.0 and the “% of reversion of sensitivity of MCF7-MX100 towards topotecan” value was “about 80.0%”. In addition, the “Selectivity … (P-gp, MRP1, BCRP)” value in series [3] is “Pgp- and BCRP-dual selectivity”. Further, in the series “in vitro”, the IC50 at 5 days is greater than 100000 nM. The compound further yielded a 50% effective concentration (EC50) on BCRP [6] of no more than 10 nM.
Consider `COC(=O)c1cccc(COc2c(-c3ccc(OCCOCCn4cc(CN(Cc5ccccc5)Cc5cn(CCOCCOc6ccc(-c7oc8ccccc8c(=O)c7OCc7cccc(C(=O)OC)c7)cc6)nn5)nn4)cc3)oc3ccccc3c2=O)c1` [Ac15Az8, Dimethyl 3,3′-(((2,2′-((((((4,4′-((benzylazanediyl)bis(methylene))bis(1H-1,2,3-triazole-4,1-diyl))bis(ethane-2,1-diyl))bis(oxy))bis(ethane-2,1-diyl))bis(oxy))bis(4,1-phenylene))bis(4-oxo-4H-chromene-3,2-diyl))bis(oxy))bis(methylene))dibenzoate], for which the “Topotecan resistance of MCF7-MX100 Therapeutic index” value at BCRP [5] is recorded as greater than 76923.1. Also, the “Selectivity … (P-gp, MRP1, BCRP)” value in series [3] is “mono-BCRP selectivity”. Moreover, the IC50 at 5 days in “in vitro” is greater than 100000 nM. This compound showed an EC50 on BCRP [6] of no more than 10 nM.
The like results for `COC(=O)c1cccc(COc2c(-c3ccc(OCCOCCOCCn4cc(CN(Cc5ccccc5)Cc5cn(CCOCCOCCOc6ccc(-c7oc8ccccc8c(=O)c7OCc7cccc(C(=O)OC)c7)cc6)nn5)nn4)cc3)oc3ccccc3c2=O)c1` [Ac15Az9, Dimethyl 3,3′-(((2,2′-((((((((4,4′-((benzylazanediyl)bis(methylene))bis(1H-1,2,3-triazole-4,1-diyl))bis(ethane-2,1-diyl))bis(oxy))bis(ethane-2,1-diyl))bis(oxy))bis(ethane-2,1-diyl))bis(oxy))bis(4,1-phenylene))bis(4-oxo-4H-chromene-3,2-diyl))bis(oxy))bis(methylene))dibenzoate] were, in that order, greater than 50000.0, “mono-BCRP selectivity”, greater than 100000 nM and no more than 10 nM.
At MRP1 [1], `O=c1cc(-c2ccccc2)oc2cc(OCCN(Cc3ccccc3)Cc3cn(CCOCCOc4ccc(-c5cc(=O)c6cc(F)ccc6o5)cc4)nn3)ccc12` [Ac16Az7, 7-(2-(Benzyl((1-(2-(2-(4-(6-fluoro-4-oxo-4H-chromen-2-yl)phenoxy)ethoxy)ethyl)-1H-1,2,3-triazol-4-yl)methyl)amino)ethoxy)-2-phenyl-4H-chromen-4-one] gave an EC50 of 123 ± 13 nM. In the series “in vitro”, this compound showed an IC50 at 5 days greater than 100000 nM.
On MRP1 [1], `O=c1cc(-c2ccccc2)oc2cc(OCCN(Cc3ccccc3)Cc3cn(CCOc4ccc5c(=O)cc(-c6ccccc6)oc5c4)nn3)ccc12` [Ac16Az13, 7-(2-(Benzyl((1-(2-((4-oxo-2-phenyl-4H-chromen-7-yl)oxy)ethyl)-1H-1,2,3-triazol-4-yl)methyl)amino)ethoxy)-2-phenyl-4H-chromen-4-one] showed an EC50 of 590 nM. In addition, the “DOX resistance of 2008/MRP1 Therapeutic index” value on MRP1 [4] is given as greater than 169.5. In “in vitro”, the IC50 at 5 days was greater than 100000 nM.
Regarding `COC(=O)c1cccc(COc2c(-c3ccc(OCCOCCOCCN=[N+]=[N-])cc3)oc3ccccc3c2=O)c1` [Az9, Methyl 3-(((2-(4-(2-(2-(2-azidoethoxy)ethoxy)ethoxy)phenyl)-4-oxo-4H-chromen-3-yl)oxy)methyl)benzoate], the “Topotecan resistance of MCF7-MX100 Therapeutic index” value at BCRP [5] is 2019.6. Moreover, the “Selectivity … (P-gp, MRP1, BCRP)” value in series [3] is listed as “mono-BCRP selectivity”. Further, the IC50 at 5 days in the series “in vitro” worked out at 20600 nM. Further, on BCRP [6], the concentration for a half-maximal effect (EC50) was no more than 10 nM.
